The values that follow come from US9868748B2, “Thiazolopyrrolidine inhibitors of ROR- γ” (Vitae Pharmaceuticals, Inc., priority 2013, dated 2018).

pIC50, pKi: −log10 of the molar value. Read-outs that look alike come from different tables or passages of the source. Bounds are passed on as bounds.

The target of experiment [1] is recombinant RORγ Ligand Binding Domain (LBD) protein (Homo sapiens (Human), UniProt P51449). The experiment can be described thus: Radio-Ligand RORγ Binding Assay (Assay 1). The settings on record: competition with 25-hydroxy [26,27-3H]-cholesterol, SPA, read-out: RORγ Binding Ki Range*. An outline of the steps:
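Recombinant human RORγ ligand binding domain (6×His-GST fusion, 24 nM stock) competed with tritiated 25-hydroxycholesterol (8.6 nM stock) in HEPES buffer pH 7.4 with detergents and DTT; poly-Lys YSi SPA beads, room temperature, tritium SPA signal. Four-parameter IC50 from semi-log dilutions, normalised to DMSO and 10 μM T0901317, then Ki via KD equation.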

Experiment [2] concerns the target full-length RORγt in Jurkat cells (Homo sapiens (Human), UniProt P51449). The experiment can be described thus: RORγt 5xRORE Assay in Jurkat Cells (Assay 2). It is filed as cell-based. The settings on record: Nanoluc luciferase reporter, 16-18 hrs. An outline of the steps:
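Inverse agonist activity was read as NanoGlo luminescence from conditioned medium after 16–18 h compound exposure (37 °C, 0.1% DMSO final). The cells were Jurkat, transiently transfected with RORγt and a secNluc reporter carrying five RORE repeats, seeded 80,000 per well in delipidated-serum RPMI.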
For orientation: Reporter assays use an easily measured gene product as a stand-in for the process of interest.

Setting [3] is: Table 8, read-out: RORγt5X IC50 Range*.
[4] abbreviates: Table 9, read-out: RORγt5X IC50 Range*.

Chain of full-length RORγt in Jurkat cells (P51449 other isoform, or with tags, fused parts or gaps): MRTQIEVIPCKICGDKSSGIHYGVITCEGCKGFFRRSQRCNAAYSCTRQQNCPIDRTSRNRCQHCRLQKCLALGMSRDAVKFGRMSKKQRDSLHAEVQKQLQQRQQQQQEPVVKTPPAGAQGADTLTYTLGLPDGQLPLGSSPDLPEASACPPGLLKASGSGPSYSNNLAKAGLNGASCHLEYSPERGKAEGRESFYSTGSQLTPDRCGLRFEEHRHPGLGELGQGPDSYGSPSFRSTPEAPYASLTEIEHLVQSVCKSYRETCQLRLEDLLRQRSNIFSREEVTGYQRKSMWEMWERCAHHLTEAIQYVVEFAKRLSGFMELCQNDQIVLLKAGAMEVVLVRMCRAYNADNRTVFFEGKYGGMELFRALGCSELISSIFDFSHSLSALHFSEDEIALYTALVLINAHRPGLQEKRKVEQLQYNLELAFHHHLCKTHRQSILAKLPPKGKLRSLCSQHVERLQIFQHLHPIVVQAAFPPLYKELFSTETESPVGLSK
Chain of recombinant RORγ Ligand Binding Domain (LBD) protein (P51449 269-508): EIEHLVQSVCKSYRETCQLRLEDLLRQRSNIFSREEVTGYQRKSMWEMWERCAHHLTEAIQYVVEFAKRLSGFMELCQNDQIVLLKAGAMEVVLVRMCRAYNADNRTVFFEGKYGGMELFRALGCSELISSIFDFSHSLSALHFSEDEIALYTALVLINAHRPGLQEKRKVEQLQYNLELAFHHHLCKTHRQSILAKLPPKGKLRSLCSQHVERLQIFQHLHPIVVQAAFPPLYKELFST

By pKi is commonly meant the Ki on a negative log10 scale, so that one unit is a factor of ten. The pIC50 is −log10 of the IC50, conventionally taken in molar units. As to `CCS(=O)(=O)c1ccc(CC(=O)Nc2nc3c(s2)CN(Cc2ccc(-c4ccn(C)c(=O)c4)cc2)[C@H]3C(C)C)nc1` [I-C7], the pKi in experiment [1] (Table 8) was over 7.00. The pIC50 in experiment [2] (setting [3]) was over 7.00.
Regarding `CCS(=O)(=O)c1ccc(CC(=O)Nc2nc3c(s2)CN(C[C@H]2CC[C@@](OC)(C(F)(F)F)CC2)[C@H]3C(C)C)nc1` [I-C8], the pKi in experiment [1] (Table 8) is over 7.00. In experiment [2] (setting [3]), the pIC50 was over 7.00.
On to `CCS(=O)(=O)c1ccc(CC(=O)Nc2nc3c(s2)CN(Cc2ccc(-c4nnn(C)n4)cc2)[C@H]3C(C)C)nc1` [I-C9], for which the pKi in experiment [1] (Table 8) is over 7.00. In addition, the pIC50 in experiment [2] (setting [3]) is over 7.00.
Take `CCS(=O)(=O)c1ccc(CC(=O)Nc2nc3c(s2)CN(Cc2ccc(C#N)c(Cl)c2)[C@H]3C(C)C)nc1` [I-C10]: the pKi in experiment [1] (Table 8) is over 7.00. Besides, the pIC50 in experiment [2] (setting [3]) is over 7.00.
Regarding `CCS(=O)(=O)c1ccc(CC(=O)Nc2nc3c(s2)CN(Cc2ccc(C#N)cc2)[C@H]3C(C)C)nc1` [I-C11], the pKi in experiment [1] (Table 8) was over 7.00. Also, the pIC50 in experiment [2] (setting [3]) is over 7.00.
For `CC(C)[C@H]1c2nc(NS(=O)(=O)c3ccc(CC(=O)O)cc3)sc2CN1Cc1ccc(Cl)cc1` [I-D1, (S)-2-(4-(N-(5-(4-chlorobenzyl)-4-isopropyl-5,6-dihydro-4H-pyrrolo[3,4-d]thiazol-2-yl)sulfamoyl)phenyl)acetic acid], in experiment [1] (Table 8), the pKi is over 7.00. Also, in experiment [2] (setting [3]), the pIC50 was under 6.00.
On to `CC(C)[C@H]1c2nc(NS(=O)(=O)c3ccc(CC(=O)O)cc3)sc2CN1Cc1ccc(C#N)c(F)c1` [I-D2, (S)-2-(4-(N-(5-(4-cyano-3-fluorobenzyl)-4-isopropyl-5,6-dihydro-4H-pyrrolo[3,4-d]thiazol-2-yl)sulfamoyl)phenyl)acetic acid], for which the pKi in experiment [1] (Table 8) is over 7.00. Moreover, in experiment [2] (setting [3]), the pIC50 is under 6.00.
Taken in the same sequence, the figures for `CC(C)[C@H]1c2nc(NC(=O)Cc3ccc(C#N)cc3)sc2CN1Cc1ccc(Cl)cc1` [I-E1, (S)—N-(5-(4-chlorobenzyl)-4-isopropyl-5,6-dihydro-4H-pyrrolo[3,4-d]thiazol-2-yl)-2-(4-cyanophenyl)acetamide] were over 7.00 and 6.00 to 7.00.
On the same counts, the results for `CCS(=O)(=O)c1ccc(CC(=O)Nc2nc3c(s2)CN(Cc2ccc(F)cc2)C3Cc2cccc(Br)c2)cc1` (stereo not shown) [I-F1, N-(4-(3-bromobenzyl)-5-(4-fluorobenzyl)-5,6-dihydro-4H-pyrrolo[3,4-d]thiazol-2-yl)-2-(4-(ethylsulfonyl)phenyl)acetamide] are over 7.00 and under 6.00.
On the same counts, the results for `CC(C)[C@H]1c2nc(NC(=O)Cc3ccc(S(=O)(=O)NC4CC4)cc3)sc2CN1Cc1ccc(Cl)cc1` [I-G1, (S)—N-(5-(4-chlorobenzyl)-4-isopropyl-5,6-dihydro-4H-pyrrolo[3,4-d]thiazol-2-yl)-2-(4-(N-cyclopropylsulfamoyl)phenyl)acetamide] are over 7.00 and over 7.00.
In the case of `CC[C@H](C)[C@H]1c2nc(NC(=O)Cc3ccc(S(C)(=O)=O)cc3)sc2CN1Cc1ccc(Cl)cc1` [I-H1, N—((S)-4-((S)-sec-butyl)-5-(4-chlorobenzyl)-5,6-dihydro-4H-pyrrolo[3,4-d]thiazol-2-yl)-2-(4-(methylsulfonyl)phenyl)acetamide], the negative logarithm of the Ki (pKi) in experiment [1] (Table 8) is over 7.00. In addition, in experiment [2] (setting [3]), the pIC50 is over 7.00.
In the case of `CC[C@H](C)C1c2nc(NC(=O)Cc3ccc(S(C)(=O)=O)cc3)sc2CN1Cc1ccc(C#N)c(F)c1` (stereo partly shown) [I-H2], in experiment [1] (Table 8), the pKi is over 7.00. For the same compound, in experiment [2] (setting [3]), the pIC50 is over 7.00.
On to `CC[C@H](C)C1c2nc(NC(=O)Cc3ccc(S(C)(=O)=O)cc3)sc2CN1Cc1ccc(Cl)cn1` (stereo partly shown) [I-H3], for which, in experiment [1] (Table 8), the pKi is over 7.00. Further, the pIC50 in experiment [2] (setting [3]) is over 7.00.
Take `CCS(=O)(=O)c1ccc(CC(=O)Nc2nc3c(s2)CN(Cc2ccc(C#N)cn2)[C@@]3(C)C(C)C)cc1` [I-I1, (S)—N-(5-((5-cyanopyridin-2-yl)methyl)-4-isopropyl-4-methyl-5,6-dihydro-4H-pyrrolo[3,4-d]thiazol-2-yl)-2-(4-(ethylsulfonyl)phenyl)acetamide]: in experiment [1] (Table 8), the negative logarithm of the Ki (pKi) is over 7.00. For the same compound, in experiment [2] (setting [3]), the pIC50 is over 7.00.
Take `CCS(=O)(=O)c1ccc(CNC(=O)c2nc3c(s2)CN(Cc2ccc(Cl)cc2)[C@H]3C(C)C)cc1` [I-J1, (S)-5-(4-chlorobenzyl)-N-(4-(ethylsulfonyl)benzyl)-4-isopropyl-5,6-dihydro-4H-pyrrolo[3,4-d]thiazole-2-carboxamide]: the pKi in experiment [1] (Table 8) is over 7.00. Besides, the pIC50 in experiment [2] (setting [3]) was over 7.00.
Regarding `CCS(=O)(=O)c1ccc(CNC(=O)c2nc3c(s2)CN(Cc2ccc(C#N)cc2)[C@H]3C(C)C)cc1` [I-J2], in experiment [1] (Table 8), the pKi is over 7.00. Also, in experiment [2] (setting [3]), the negative-log IC50 (pIC50) is over 7.00.
In the case of `CCS(=O)(=O)c1ccc(CNC(=O)c2nc3c(s2)CN(Cc2ccc(-c4nnn(C)n4)cc2)[C@H]3C(C)C)cc1` [I-J3], in experiment [1] (Table 8), the pKi is over 7.00. The pIC50 in experiment [2] (setting [3]) was over 7.00.
Regarding `CCS(=O)(=O)c1ccc(CNC(=O)c2nc3c(s2)CN(Cc2ccc(C(F)(F)F)cn2)[C@H]3C(C)C)cc1` [I-J4], in experiment [1] (Table 8), the pKi is over 7.00. The pIC50 in experiment [2] (setting [3]) was over 7.00.
`CCS(=O)(=O)c1ccc(CNC(=O)c2nc3c(s2)CN(C[C@@H]2CN(C(=O)OC(C)(C)C)CCO2)[C@H]3C(C)C)cc1` [I-J5]: in experiment [1] (Table 8), the pKi was over 7.00. The pIC50 in experiment [2] (setting [3]) was over 7.00.
Turning to `CCS(=O)(=O)c1ccc(CNC(=O)c2nc3c(s2)CN(Cc2ccc(OC(F)F)cc2)[C@H]3C(C)C)cc1` [I-J6], the pKi in experiment [1] (Table 8) is over 7.00. Besides, the pIC50 in experiment [2] (setting [3]) is over 7.00.
On to `CC(C)[C@H]1c2nc(C(=O)NCc3ccc(S(C)(=O)=O)cc3)sc2CN1Cc1ccc(Cl)cn1` [I-K1, (S)-5-((5-chloropyridin-2-yl)methyl)-4-isopropyl-N-(4-(methylsulfonyl)benzyl)-5,6-dihydro-4H-pyrrolo[3,4-d]thiazole-2-carboxamide], for which, in experiment [1] (Table 8), the pKi was over 7.00. Further, in experiment [2] (setting [3]), the pIC50 is 6.00 to 7.00.
On the same counts, the results for `CC(C)[C@H]1c2nc(C(=O)NCc3ccc(S(C)(=O)=O)cc3)sc2CN1Cc1ccc(OC(F)F)cc1` [I-K2] are over 7.00 and over 7.00.
For the compound `COC(=O)c1ccc(CN2Cc3sc(C(=O)NCc4ccc(S(C)(=O)=O)cc4)nc3[C@@H]2C(C)C)cc1` [I-K3], in experiment [1] (Table 8), the pKi is over 7.00. Besides, the pIC50 in experiment [2] (setting [3]) is over 7.00.
Turning to `CCS(=O)(=O)c1ccc(CNC(=O)c2nc3c(s2)CN(Cc2ccc(Cl)cc2)[C@H]3C(C)C)nc1` [I-L1, (S)-5-(4-chlorobenzyl)-N-((5-(ethylsulfonyl)pyridin-2-yl)methyl)-4-isopropyl-5,6-dihydro-4H-pyrrolo[3,4-d]thiazole-2-carboxamide], in experiment [1] (Table 8), the pKi is over 7.00. Moreover, the pIC50 in experiment [2] (setting [3]) was over 7.00.
`CC(C)[C@H]1c2nc(NC(=O)Cc3ccc(S(C)(=O)=O)cc3F)sc2CN1Cc1ccc(C#N)cc1` [I-M1, (S)—N-(5-(4-cyanobenzyl)-4-isopropyl-5,6-dihydro-4H-pyrrolo[3,4-d]thiazol-2-yl)-2-(2-fluoro-4-(methylsulfonyl)phenyl)acetamide]: the pKi in experiment [1] (Table 8) is over 7.00. In experiment [2] (setting [3]), the pIC50 was over 7.00.
Consider `CCS(=O)(=O)c1ccc(CC(=O)Nc2nc3c(s2)CN(Cc2ccc(C#N)cc2)[C@H]3C(C)C)nc1` [drawing 230], for which the pKi in experiment [1] (Table 9) is over 7.00. For the same compound, in experiment [2] (setting [4]), the pIC50 was over 7.00.
As for `CCS(=O)(=O)c1ccc(CC(=O)Nc2nc3c(s2)CN(Cc2ccc(C#N)cn2)[C@@]3(C)C(C)C)cc1` [drawing 270], the pKi in experiment [1] (Table 9) is over 7.00. The pIC50 in experiment [2] (setting [4]) was over 7.00.
Regarding `CC(C)[C@H]1c2nc(C(=O)NCc3ccc(S(C)(=O)=O)cc3)sc2CN1Cc1ccc(Cl)cn1` [drawing 378], the pKi in experiment [1] (Table 9) is over 7.00. The pIC50 in experiment [2] (setting [4]) is 6.00 to 7.00.
For `CC(C)[C@H]1c2nc(NS(=O)(=O)c3ccc(CC(=O)O)cc3)sc2CN1Cc1ccc(C#N)c(F)c1` [drawing 411], in experiment [1] (Table 9), the pKi is over 7.00. Besides, in experiment [2] (setting [4]), the negative logarithm of the IC50 (pIC50) is under 6.00.
